Ends that are not written are not given here.
Assays:
HUVECs = assay: Annexin V-FITC/PI staining, flow cytometry (apoptosis); format: cell-based, human; details: 320 μmol/L, 24 h; for induction of apoptosis: Hoechst and Annexin V-FITC/PI staining; for total apoptotic rate (Q1-UR and Q1-LR): mean ± SD, n = 3, control (7.17 ± 1.42)%
Description: HUVECs were seeded into 6-well culture plates (3 × 10^5 cells/well). […] After discarding the supernatant and washing with cold PBS, the cells were fixed in 4% paraformaldehyde and stained with Hoechst 33,258 for 10 min. Then, the cells were washed with cold PBS and observed using an inverted fluorescence microscope. HUVECs were treated with different peptides (the methods were the same as the Hoechst staining). After 24 h, cells were collected by trypsin digestion and washed with PBS. Annexin V-FITC/PI staining was conducted according to the manufacturer’s instructions for the Apoptosis Detection Kit. Briefly, 195 μL of Annexin V-FITC/PI dilution buffer was added to resuspend the cells. Then, 5 μL of Annexin V-FITC and 10 μL of PI staining solutions were added and gently mixed with the cells. After incubation at room temperature in the dark for 10 min, the apoptotic cells were detected by flow cytometry.

VEGFR-2 = format: binding, human; details: peptide 256 and 1000 nmol/L; VEGF-A165 0.5-8 nmol/L; CM5 chip; HBS-EP
Description: To determine the effect of TAT-AT7 in competition with VEGF-A165 binding to VEGFR-2 or NRP-1, the SPR assay was conducted. The whole operation was conducted on a Biacore S200 instrument. The recombinant VEGFR-2 or NRP-1 proteins were firstly immobilized on a CM5 chip by an amine-coupling reaction. VEGF-A165 ligands with gradient concentrations in the absence or presence of different peptides were then flowed over the CM5 chip. The binding of VEGF-A165 ligands to the immobilized recombinant VEGFR-2 or NRP-1 proteins led to an increase of the refractive index on the surface of the chip, which could be converted into the fluctuation of electrical signals in the response (RU). As the concentration of VEGF-A165 was higher, the response value was also higher. However, with the addition of different peptides, the response value decreased to different degrees (Figure 3A and Figure 4A).
(TAT), ATWLPPR (AT7), and […] (TAT-AT7) were synthesized from China Peptides Co., Ltd. (Shanghai, China). The Hoechst 33,258 staining kit, Annexin V-FITC/PI apoptosis detection kit, and BCA protein assay kit were obtained from Beyotime Biotechnology (Nantong, China). The total protein extraction kit was from BestBio (Shanghai, China). The CM5 sensor chip was obtained from GE Healthcare Life Sciences (Uppsala, Sweden). Purified recombinant human VEGFR-2 and NRP-1 receptor proteins were purchased from R&D Systems (Minneapolis, MN, USA). Recombinant human endothelial growth factor-A165 (VEGF-A165) was obtained from PeproTech (Rocky Hill, NJ, USA). Anti-ERK1/2, anti-p-ERK1/2, anti-p-VEGFR-2, anti-AKT, anti-p-AKT, anti-p-SRC, anti-p-FAK, anti-p38 MAPK, anti-p-p38 MAPK, anti-p-PLC-γ, and anti-GAPDH antibodies were purchased from Cell Signaling Technology (Danvers, MA, USA). Anti-VEGFR-2, anti-FAK, and anti-SRC were purchased from Proteintech Group, Inc (Wuhan, China). F-12K medium, heparin, and endothelial cell growth supplement (ECGS) were from Macgene (Beijing, China). DMEM medium and fetal bovine serum (FBS) were obtained from Gibco®, Life Technologies (Carlsbad, CA, USA). […]

[1] = tested on: zebrafish embryo intersegmental vessel; assay: Zebrafish embryo intersegmental vessel angiogenesis; format: in vivo; details: 25 µmol/L; 24 h; 28 °C; fluorescence microscope; vs control; n = 3
Description: After a certain period, healthy, sexually mature female and male zebrafish were mated in a 1:1 ratio. After 24 h, the fertilized eggs were removed, disinfected, and washed, and then placed in embryo culture water and cultured in an incubator at 28 °C for 24 h. The fertilized eggs were washed with chain enzyme protease E solution (1 mg/mL) to remove the egg membrane on the surface and placed under a microscope to observe and select the normally developing zebrafish embryos, and then placed into a 24-well plate. […] The control group was added with the same volume of embryo culture water, and then placed in an incubator at 28 °C for 24 h. Zebrafish embryos were randomly removed from each group and observed under a fluorescence microscope. The total length of zebrafish internode vessels was calculated and counted.

[2] = tested on: intracranial U87-mCherry-luc glioma; assay: In vivo anti-glioma study (bioluminescence); design: species or system nude mice; details: 20 mg/kg/day i.v. (tail vein), 11 days; days 4, 7, 11, 14; n = 5
Description: The orthotopic U87-mCherry-luc glioma-bearing nude mice were randomly assigned to 6 groups (n = 5) according to the bioluminescence intensity of glioma measured on day 4. […] The bioluminescence intensity was measured on days 4, 7, 11, and 14, respectively. Nude mice were weighed daily. On day 15, the mice were sacrificed, and the glioma-bearing brains were harvested. The brain tissues were fixed with 4.0% paraformaldehyde, embedded in paraffin, and cut into slices. The TUNEL staining and CD31 immunohistochemical staining were conducted according to standard histological procedures.

NRP-1 = details: for inhibition of binding of VEGF-A165 and NRP-1: peptide 1000 nmol/L
Description: The SPR assay was performed using the Biacore S200 instrument (GE Healthcare, Uppsala, Sweden). Firstly, the CM5 sensor chip was activated with EDC/NHS. Then, the recombinant VEGFR-2 and NRP-1 proteins were immobilized on the surface of the sensor chip according to the operating instructions of amine coupling. VEGF-A165 was diluted to 8, 4, 2, 1, and 0.5 nmol/L in different concentrations of peptide solution dissolved by HBS-EP buffer (0, 0.016, 0.064, 0.256, and 1 μmol/L, respectively). The Kinetics/Affinity program was selected, and the automatic continuous injection program was set. The injection flow rate was 30 μL/min, the injection time was 120 s, and the dissociation time was 220 s. At the same time, zero-concentration injection wells and 0.5 nmol/L repeat-concentration injection wells of VEGF-A165 were set. At the end of each injection, the channels were flushed with glycine-HCl solution for 30 s until response values were returned to baseline.

[3] = VEGF-A165 0.5-8 nmol/L, CM5 chip, HBS-EP

Molecule	induction of apoptosis (HUVECs)	total apoptotic rate (Q1-UR and Q1-LR) (HUVECs) [%]	effect on VEGF-A165 and VEGFR-2 binding (RU) (VEGFR-2)	intersegmental vascular growth [1]	glioma growth (bioluminescence) [2]	inhibition of binding of VEGF-A165 and NRP-1 (NRP-1; [3])	inhibition of VEGF-A165 binding to NRP-1 relative to VEGFR-2 (NRP-1; SPR, NRP-1 compared with VEGFR-2)	inhibitory effect on VEGF-A165/NRP-1 binding, comparison between peptides (NRP-1; [3])	binding curve of VEGF-A165 and NRP-1 (NRP-1; peptide 256 nmol/L, VEGF-A165 0.5-8 nmol/L, CM5 chip, HBS-EP)
ATWLPPR [AT7, ATWLPPR]	no obvious effect of promoting apoptosis	7.80 ± 1.50	less inhibitory effects on VEGF-A165 and VEGFR-2 binding than TAT-AT7	no obvious effect on intersegmental vascular growth	no significant difference compared to the control group	displayed inhibitory effects on the binding of VEGF-A165 and NRP-1, but it did not completely inhibit the binding			
CC(C)C[C@H](NC(=O)[C@H](Cc1c[nH]c2ccccc12)NC(=O)[C@@H](NC(=O)[C@H](C)NC(=O)[C@H](CS)NC(=O)[C@H](CCCNC(=N)N)NC(=O)[C@H](CCCNC(=N)N)NC(=O)[C@H](CCCNC(=N)N)NC(=O)[C@H](CCC(N)=O)NC(=O)[C@H](CCCNC(=N)N)NC(=O)[C@H](CCCNC(=N)N)NC(=O)[C@H](CCCCN)NC(=O)[C@H](CCCCN)NC(=O)[C@@H](N)CCCNC(=N)N)[C@@H](C)O)C(=O)N1CCC[C@H]1C(=O)N1CCC[C@H]1C(=O)N[C@@H](CCCNC(=N)N)C(=O)O [TAT-AT7]	strongly induced HUVECs’ apoptosis	29.56 ± 3.07	significantly reduced the RU value	significantly inhibit the generation of the zebrafish embryo intersegmental vessel	significantly suppressed glioma growth on days 11 and 14	completely inhibited the binding of VEGF-A165 and NRP-1	stronger inhibitory effect on the binding of VEGF-A165 to NRP-1	much higher than that of AT7 and TAT	tended to be a zero baseline
